From US20240226059A1, “COMPOSITION FOR INHIBITING ANGIOGENESIS AND ENHANCING THERAPEUTIC EFFECT OF ANTICANCER DRUGS IN CANCER PATIENT” (KANT SCIENCE INC., priority 2020, published 2024) come the findings set out here.

Holding throughout (type): cell-based
In experiment [1] the test system is Breast cancer cells. Put plainly: Intracellular acidity (pH) of breast cancer cells at normal or low glucose. The following applies: low-carbohydrate state (glucose 5 nM), in combination with paclitaxel (PTX); FIG. 1, FIG. 2. Here is the method:
Breast cancer cells were cultured at a normal glucose (GLU) concentration of […] or a low concentration of […], and intracellular acidity was confirmed with or without the treatment of paclitaxel (PTX), which is an anticancer drug, and cariporide (CAR), which is a drug that regulates intracellular acidity.

For experiment [2], the system named is Breast cancer cells. In words: Cell viability of breast cancer cells at normal or low glucose. The following applies: low-carbohydrate state (glucose 5 nM), in combination with paclitaxel (PTX); FIG. 3. The protocol:
Breast cancer cells were cultured at a normal glucose (GLU) concentration of […] or a low concentration of […], and cell viability was confirmed with and without the treatment of paclitaxel (PTX), which is an anticancer drug, and cariporide (CAR) or curcumin (CUR).

The next experiment deals with colorectal cancer cells. Put plainly: Anticancer drug resistance (GR50 ratio) of colorectal cancer cells at high or low glucose. The following applies: low glucose (5 nM), in combination with irinotecan; FIG. 4. Here is the method: Furthermore, colorectal cancer cells were cultured at a high glucose concentration ([…]) or a low glucose concentration ([…]), and it was confirmed by a growth rate 50 ratio (GR50 ratio) while treating irinotecan, which is an anticancer drug, and cariporide in combination whether the cancer cells had anticancer drug resistance.

SMILES strings stand for the structures. Entries after “also recorded” stand apart in the source; their conditions may differ.

Regarding `CC(C)c1ccc(C(=O)NC(=N)N)cc1S(C)(=O)=O` [cariporide], the intracellular acidity result in the experiment with Breast cancer cells [1] is recorded as “maintained normal pH; also recorded: closest to normal”. The “anticancer effect (cell viability)” value with Breast cancer cells [2] was “best anticancer effect”. Further, in the experiment on colorectal cancer cells, the “anticancer drug resistance (growth rate 50 ratio, GR50 ratio)” value was “overcome anticancer drug resistance” and the cell viability result is reported as “significantly reduce cell viability”.
As to `COc1cc(/C=C/C(=O)CC(=O)/C=C/c2ccc(O)c(OC)c2)ccc1O` [curcumin], the intracellular acidity entry with Breast cancer cells [1] is recorded as “same effect as cariporide; also recorded: closest to normal”. Moreover, in the experiment on Breast cancer cells [2], the “anticancer effect (cell viability)” value is given as “best anticancer effect”.
